Residue numbers refer to the chain shown, from its start. “And” between values parts separate entries of the source, which are not always exact repeats. Equal entries are not always repeated.
Columns and labels:
[1] = biological target: T1, σ2 receptors (Rattus norvegicus, UniProt Q5U3Y7); assay: σ2 receptor binding assay, [^3H]DTG in the presence of (+)-pentazocine, rat liver membrane homogenates
T1 construct: conducted using rat liver membrane homogenates; from tissue; host or cells: rat liver membrane homogenates
T1 sequence (Q5U3Y7 1-176): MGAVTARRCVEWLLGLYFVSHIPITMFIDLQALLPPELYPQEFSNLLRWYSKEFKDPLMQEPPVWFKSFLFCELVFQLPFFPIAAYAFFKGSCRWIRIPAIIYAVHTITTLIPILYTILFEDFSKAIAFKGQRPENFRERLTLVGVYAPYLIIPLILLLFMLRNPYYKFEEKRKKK
Protocol: The incubation time was 120 min at room temperature. […] All other procedures were identical to those described for the σ1 receptor binding assay above.

[2] = biological target: σ1 receptors (Cavia porcellus, UniProt Q60492)
Protocol: In these assays, the novel sigma ligands were dissolved in N,N-dimethylformamide (DMF), DMSO or ethanol, and then diluted in 50 mM Tris-HCl buffer containing 150 mM NaCl and 100 mM EDTA at pH 7.4 prior to performing the σ1 and σ2 receptor binding assays. […] The samples were harvested and filtered rapidly through a 96-well fiber glass filter plate (millipore, Billerica, Mass.) that had been presoaked with 100 μL of 50 mM Tris-HCl buffer at pH 8.0 for 1 h.
The Ki values were determine from Scatchard plots.

[3] = tested on: EMT-6 tumors; assay: Biodistribution of 18F-labeled ligands in mice bearing EMT-6 tumors; assay type: in vivo, female Balb/c mice
Protocol: This example illustrates in vivo evaluation of compounds of the present teachings. All animal experiments were conducted in compliance with the Guidelines for the Care and Use of Research Animals established by Washington University's Animal Studies Committee. EMT-6 mouse mammary adenocarcinoma cells (5×10^5 cells in 100 uL of phosphate-buffered saline) were implanted subcutaneously in the scapular region of female Balb/c mice (˜2-month old and 17-22 g; Charles River Laboratories). […] Groups of at least 4 mice were used for each time point. […] After counting, the percentage of the injected dose per gram of tissue (%ID/g) was calculated. The tumor/organ ratios were calculated by dividing the %ID/g of the tumor by the %ID/g of each organ.

[4] = biological target: T2, σ2 receptors (Mus musculus, UniProt Q8VD00); assay: Blocking study: co-injection of 1 mg/kg YUN-143 in EMT-6 tumor-bearing mice; assay type: in vivo; conditions: 1 mg/kg YUN-143, 1 h post-injection
T2 construct: from tissue; host or cells: EMT-6 tumours in female Balb/c mice, in vivo
T2 sequence (Q8VD00 1-176): T1 sequence (Q5U3Y7 1-176) with V4L, T5A, M26L, L33V, F71L, V105A, I118L, I127V, N136S, F169Y
Protocol: These blocking studies in tumor-bearing mice were conducted by co-injecting 1 mg/kg of cold N-(4-fluorobenzyl) piperidinyl-4-(3-bromophenyl)acetamide (YUN-143) with [^18F]3c or [^18F]3f.

Chain of σ1 receptors (Q60492 whole entry): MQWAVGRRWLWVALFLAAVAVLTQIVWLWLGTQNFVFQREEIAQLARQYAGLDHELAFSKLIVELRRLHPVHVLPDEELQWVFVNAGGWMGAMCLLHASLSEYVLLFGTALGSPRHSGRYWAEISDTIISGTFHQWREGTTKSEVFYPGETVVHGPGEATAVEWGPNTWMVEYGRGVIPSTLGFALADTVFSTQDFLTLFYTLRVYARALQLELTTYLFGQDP

Molecule: 5-bromo-N-[4-(6,7-dimethoxy-3,4-dihydro-1H-isoquinolin-2-yl)-butyl]-2-(2-fluoro-ethoxy)-3-methoxy-benzamide [compound 3b]
- Ki ([1]; rat liver membranes, [^3H]DTG, mean ± SEM): 0.386 ± 0.093 µM
- σ1:σ2 Ratio ([1]; ratio of Ki values): 40
- Ki [2]: 15.3 µM

Molecule: COc1cc2c(cc1OC)CN(CCCCNC(=O)c1cc(C)ccc1OCC[18F])CC2 [[^18F]3c]
- Biodistribution: blood ([3]; 5 min after i.v. injection): 2.49 ± 0.49 %ID/g
- Biodistribution: bone ([3]; 5 min after i.v. injection): 2.49 ± 0.19 %ID/g
- Biodistribution: brain ([3]; 5 min after i.v. injection): 0.76 ± 0.06 %ID/g
- Biodistribution: fat ([3]; 5 min after i.v. injection): 1.95 ± 0.33 %ID/g
- Biodistribution: heart ([3]; 5 min after i.v. injection): 3.73 ± 0.15 %ID/g
- Biodistribution: kidney ([3]; 5 min after i.v. injection): 29.18 ± 1.92 %ID/g
- Biodistribution: liver ([3]; 5 min after i.v. injection): 23.33 ± 4.22 %ID/g
- Biodistribution: lung ([3]; 5 min after i.v. injection): 10.26 ± 0.71 %ID/g
- Biodistribution: muscle ([3]; 5 min after i.v. injection): 1.86 ± 0.08 %ID/g
- Biodistribution: tumor (tumor uptake) ([3]; 5 min after i.v. injection): 3.67 ± 0.45 %ID/g
- Biodistribution: blood ([3]; 30 min after i.v. injection): 1.16 ± 0.10 %ID/g
- Biodistribution: bone ([3]; 30 min after i.v. injection): 0.96 ± 0.15 %ID/g
- Biodistribution: brain ([3]; 30 min after i.v. injection): 0.27 ± 0.05 %ID/g
- Biodistribution: fat ([3]; 30 min after i.v. injection): 0.59 ± 0.13 %ID/g
- Biodistribution: heart ([3]; 30 min after i.v. injection): 1.15 ± 0.06 %ID/g
- Biodistribution: kidney ([3]; 30 min after i.v. injection): 6.86 ± 0.45 %ID/g
- Biodistribution: liver ([3]; 30 min after i.v. injection): 10.51 ± 0.87 %ID/g
- Biodistribution: lung ([3]; 30 min after i.v. injection): 2.36 ± 0.19 %ID/g
- Biodistribution: muscle ([3]; 30 min after i.v. injection): 0.70 ± 0.19 %ID/g
- Biodistribution: tumor (tumor uptake) ([3]; 30 min after i.v. injection): 2.54 ± 0.27 %ID/g
- Biodistribution: tumor (tumor uptake) ([3]; 60 min (1 h) after i.v. injection): 1.14 ± 0.10 %ID/g
- Biodistribution: blood ([3]; 60 min after i.v. injection): 0.56 ± 0.08 %ID/g
- Biodistribution: bone ([3]; 60 min after i.v. injection): 0.55 ± 0.07 %ID/g
- Biodistribution: brain ([3]; 60 min after i.v. injection): 0.18 ± 0.03 %ID/g
- Biodistribution: fat ([3]; 60 min after i.v. injection): 0.22 ± 0.04 %ID/g
- Biodistribution: heart ([3]; 60 min after i.v. injection): 0.55 ± 0.07 %ID/g
- Biodistribution: kidney ([3]; 60 min after i.v. injection): 2.51 ± 0.51 %ID/g
- Biodistribution: liver ([3]; 60 min after i.v. injection): 4.14 ± 0.55 %ID/g
- Biodistribution: lung ([3]; 60 min after i.v. injection): 0.88 ± 0.12 %ID/g
- Biodistribution: muscle ([3]; 60 min after i.v. injection): 0.34 ± 0.05 %ID/g
- Biodistribution: tumor (tumor uptake) ([3]; 120 min (2 h) after i.v. injection): 0.64 %ID/g and 0.64 ± 0.10 %ID/g
- Biodistribution: blood ([3]; 120 min after i.v. injection): 0.35 ± 0.05 %ID/g
- Biodistribution: bone ([3]; 120 min after i.v. injection): 0.45 ± 0.11 %ID/g
- Biodistribution: brain ([3]; 120 min after i.v. injection): 0.12 ± 0.02 %ID/g
- Biodistribution: fat ([3]; 120 min after i.v. injection): 0.08 ± 0.02 %ID/g
- Biodistribution: heart ([3]; 120 min after i.v. injection): 0.27 ± 0.04 %ID/g
- Biodistribution: kidney ([3]; 120 min after i.v. injection): 0.87 ± 0.13 %ID/g
- Biodistribution: liver ([3]; 120 min after i.v. injection): 2.05 ± 0.43 %ID/g
- Biodistribution: lung ([3]; 120 min after i.v. injection): 0.43 ± 0.07 %ID/g
- Biodistribution: muscle ([3]; 120 min after i.v. injection): 0.24 ± 0.08 %ID/g
- tumor:fat ratio ([3]; 2 h after i.v. injection): ~8
- clearance from the blood (in words) ([3]; mouse, in vivo): rapid clearance from the blood
- decrease in the tumor:fat ratio on co-injection of YUN-143 [4]: ~50%
- decrease in the tumor:muscle ratio on co-injection of YUN-143 [4]: ~50%
